According to EP1200406B1, “CYCLIC AMIDES AND IMIDES HAVING SELECTIVE ANTAGONIST ACTIVITY AT ALPHA-1D ADRENERGIC RECEPTOR” (RECORDATI INDUSTRIA CHIMICA E FARMACEUTICA S.p.a., priority 1999, dated 2001):
Read-outs that look alike come from different tables or passages of the source.

Assays:
[1] = target: T1, human 5-HT1A-serotoninergic receptor (Homo sapiens, UniProt P08908); test: Radioligand binding ([3H]8-OH-DPAT) on membranes of HeLa cells expressing cloned 5-HT1A receptor; settings: read-out: Affinity (Ki) 5-HT1A
T1 construct: expressed in transfected cells; host or cells: HeLa cells (membranes)
T1 sequence (P08908 1-422): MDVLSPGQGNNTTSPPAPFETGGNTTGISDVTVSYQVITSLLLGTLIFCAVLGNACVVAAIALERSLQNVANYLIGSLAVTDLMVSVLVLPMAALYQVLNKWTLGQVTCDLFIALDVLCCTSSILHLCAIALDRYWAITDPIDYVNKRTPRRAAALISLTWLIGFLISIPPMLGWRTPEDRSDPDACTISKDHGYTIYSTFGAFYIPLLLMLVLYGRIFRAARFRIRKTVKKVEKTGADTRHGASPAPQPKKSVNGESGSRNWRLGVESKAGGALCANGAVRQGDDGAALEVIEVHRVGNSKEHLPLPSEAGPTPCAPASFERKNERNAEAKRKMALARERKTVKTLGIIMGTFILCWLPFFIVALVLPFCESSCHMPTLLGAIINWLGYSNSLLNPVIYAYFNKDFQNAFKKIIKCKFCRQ
Description: The determination of affinity for cloned subtypes of human α1 adrenergic receptors was performed in membranes from CHO cells (chinese hamster ovary cells) transfected by electroporation with DNA expressing the genes encoding each α1-adrenoceptor subtype, namely α1a, α1b and α1d.. Cloning and stable expression of the human α1-adrenoceptor gene were performed as previously described (Testa et al., Pharmacol. Comm. 6, 79-86 (1995)). CHO cell membranes were incubated in […] Tris pH 7.4 with 0.2 nM [^3H]prazosin, in a final volume of 1.02 ml for 30 minutes at 25°C, in the absence or presence of competing drugs (1 pM-10 µM). Non-specific binding was determined in the presence of 10 µM phentolamine. Incubation was stopped by addition of ice-cold Tris buffer and rapid filtration through 0.2% polyethyleneimine pretreated Schleicher & Schuell GF52 filters. Genomic clone G-21 coding for the human 5-HT1A-serotoninergic receptor was stably transfected in a human cell line (HeLa) (Fargin et al., J. Biol. Chem. 284, 14848-14852 (1989)). The HeLa cells were grown as monolayers in Dulbecco's modified Eagle's medium (DMEM), supplemented with 10% foetal calf serum and gentamicin (100 µg/ml), 5% CO2, at 37°C. The cells were detached from the growth flask at 95% confluence by a cell scraper and were lysed in ice-cold 5 mM Tris and 5-mM EDTA buffer (pH 7.4). The homogenates were centrifuged at 40000 x g x 20 minutes and the membranes were re-suspended in a small volume of ice-cold 5 mM Tris and 5-mM EDTA buffer (pH 7.4) and immediately frozen and stored at -70°C until use. On the experiment day, the cell membranes were re-suspended in a buffer containing 50 mM Tris (pH 7.4), 2.5 mM MgCl2, 10 µM pargyline (Fargin et al., Nature 335, 358-360 (1988)). […] The incubation was stopped by addition of ice-cold Tris buffer and rapid filtration through 0.2%-polyethyleneimine-pretreated Schleicher & Schuell filters. The inhibition of specific binding of the radioligands by the drugs was analysed to estimate the IC50 value by using the non-linear curve-fitting programme Allfit (De Lean et al., Am. J. Physiol. 235, E97-E102 (1978)). The IC50 value was converted to an affinity constant (Ki) by the equation of Cheng & Prusoff (Biochem. Pharmacol. 22, 3099-3108 (1973)). Data were expressed as mean of Ki.

[2] = target: T2, Rat aorta α1D (Rattus norvegicus, UniProt P23944); test: Functional antagonism of noradrenaline-induced contraction, rat aorta strips; format: cell-based, Sprague Dawley rats; settings: noradrenaline as agonist, 30 minutes incubation, Schild plot; read-out: Functional affinity pKB, Rat aorta α1D (converted)
T2 construct: from tissue; host or cells: rat thoracic aorta, helicoidal strips
T2 sequence (P23944 1-561): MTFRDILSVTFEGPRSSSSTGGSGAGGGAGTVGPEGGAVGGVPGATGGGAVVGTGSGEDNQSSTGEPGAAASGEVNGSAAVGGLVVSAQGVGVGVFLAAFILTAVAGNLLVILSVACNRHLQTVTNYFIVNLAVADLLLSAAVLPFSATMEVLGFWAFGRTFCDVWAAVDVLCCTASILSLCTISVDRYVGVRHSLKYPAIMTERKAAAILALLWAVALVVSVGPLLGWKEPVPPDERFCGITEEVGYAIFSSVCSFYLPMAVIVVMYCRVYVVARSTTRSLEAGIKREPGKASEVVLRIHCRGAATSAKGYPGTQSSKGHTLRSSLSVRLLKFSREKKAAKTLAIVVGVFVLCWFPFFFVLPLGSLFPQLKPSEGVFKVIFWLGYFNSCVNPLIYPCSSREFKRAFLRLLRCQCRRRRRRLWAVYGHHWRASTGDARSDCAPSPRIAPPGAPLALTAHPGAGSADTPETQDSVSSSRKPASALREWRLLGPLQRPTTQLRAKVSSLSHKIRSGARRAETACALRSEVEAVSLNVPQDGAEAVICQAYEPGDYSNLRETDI
Description: In vitro assessment of functional antagonism for α1-adrenoceptor subtypes
Thoracic aorta was obtained from Sprague Dawley rats, cut in helicoidal strips and placed in Krebs solution containing desmethylimipramine (0.1 µM), corticosterone (1 µM), propranol (1 µM) and yohimbine (0.1 µM). The strips were mounted for isotonic tension recording in an organ bath containing the above Krebs buffer enriched and aerated constantly with 95% O2 and 5% CO2, maintained at 37°C and loaded with 1.5 g. After an equilibration period, the strips were primed twice with 10 µM noradrenaline, then concentration/response-to-the-agonist curves were constructed before (basal) and after 30 minutes incubation with single antagonist concentrations (response). The Schild-plot parameters were evaluated by linear-regression analysis according to Tallarida and Murray (Manual of Pharmacologic Calculations with Computer Programs, 53-56, Springer-Verlag).

[3] = human cloned receptor, HeLa cell membranes, 1.2 nM [3H]8-OH-DPAT

SMILES: CC(CN1CCN(c2cc(Cl)ccc2Cl)CC1)N1C(=O)CC2(CCCC2)CC1=O (stereo not shown) [Example 16, 8-{2-[4-(2,5-Dichlorophenyl)-1-piperazinyl]-1-methylethyl}-8-azaspiro[4.5]decane-7,9-dione]
- Ki [1, 3]: 207 nM

SMILES: O=C1CC2(CCCC2)CC(=O)N1CCN1CCN(c2cc(F)ccc2Cl)CC1 [Example 9, 8-{2-[4-(2-Chloro-5-fluorophenyl)-1-piperazinyl]-ethyl}-8-azaspiro[4.5]decane-7,9-dione]
- Ki [1, 3]: 12.1 nM

SMILES: CCC1(C)CC(=O)N(CCN2CCN(c3cc(Cl)ccc3Cl)CC2)C(=O)C1 [Example 13, 1-{2-[4-(2,5-Dichlorophenyl)-1-piperazinyl]-ethyl}-4-ethyl-4-methylpiperidinyl-2,6-dione]
- Ki [1, 3]: 104 nM

SMILES: O=C1CC2(C=CN1CCN1CCN(c3cc(Cl)ccc3Cl)CC1)CCCC2 [Example 20, 8-{2-[4-(2,5-Dichlorophenyl)-1-piperazinyl]-ethyl}-8-azaspiro[4.5]dec-9,10-en-7-one]
- Ki [1, 3]: 91.9 nM

SMILES: O=C1CC2(CCCC2)CC(=O)N1CCN1CCN(c2cc(Br)ccc2Br)CC1 [Example 7, 8-{2-[4-(2,5-Dibromophenyl)-1-piperazinyl]-ethyl}-8-azaspiro[4.5]decane-7,9-dione]
- Ki [1, 3]: 62.2 nM

SMILES: O=C1CC2(CCCC2)CC(=O)N1CCN1CCN(c2cc(Cl)ccc2Cl)CC1 [Example 1, 8-{2-[4-(2,5-Dichlorophenyl)-1-piperazinyl]-ethyl}-8-azaspiro[4.5]decane-7,9-dione]
- Ki [1, 3]: 36 nM
- Kb [2]: 1.02 nM

SMILES: O=C1CC2(CCCC2)CC(=O)N1CCN1CCC(c2cc(Cl)ccc2Cl)CC1 [Example 17, 8-{2-[4-(2,5-Dichlorophenyl)-1-piperidinyl]-ethyl}-8-azaspiro[4.5]decane-7,9-dione]
- Ki [1, 3]: 248 nM

SMILES: O=C1CC2(CCC2)CC(=O)N1CCN1CCN(c2cc(Cl)ccc2Cl)CC1 [Example 15, 7-{2-[4-(2,5-Dichlorophenyl)-1-piperazinyl]-ethyl}-7-azaspiro[3.5]nonane-6,8-dione]
- Ki [1]: > 1000 nM

SMILES: Cc1ccc(C)c(N2CCN(CCN3C(=O)CC4(CCCC4)CC3=O)CC2)c1 [Example 5, 8-{2-[4-(2,5-Dimethylphenyl)-1-piperazinyl]-ethyl}-8-azaspiro[4.5]decane-7,9-dione]
- Ki [1, 3]: 275 nM

SMILES: CN(CCN1C(=O)CC2(CCCC2)CC1=O)CCN(C)c1cc(Cl)ccc1Cl [Example 18, N-(2,5-Dichlorophenyl)-N'-{2-(7,9-dioxo-8-azaspiro[4.5]decane-8-yl)-ethyl}-N,N'-dimethyl-1,2-diaminoethane]
- Ki [1, 3]: 433 nM

SMILES: O=C1CC2(CCCCC2)CC(=O)N1CCN1CCN(c2cc(Cl)ccc2Cl)CC1 [Example 11, 3-{2-[4-(2,5-Dichlorophenyl)-1-piperazinyl]-ethyl}-3-azaspiro[5.5]undecane-2,4-dione]
- Ki [1, 3]: 128 nM

SMILES: O=C1CC2(CCCC2)CCN1CCN1CCN(c2cc(F)c(F)cc2F)CC1 [Example 24, 8-{2-[4-(2,4,5-Trifluorophenyl)-1-piperazinyl]-ethyl}-8-azaspiro[4.5]decane-7-one]
- Ki [1]: 214 nM

SMILES: O=C1CC2(CCCC2)CC(=O)N1CCN1CCN(c2cc(C(F)(F)F)ccc2F)CC1 [Example 6, 8-{2-[4-(2-Fluoro-5-trifluoromethylphenyl)-1-piperazinyl]-ethyl}-8-azaspiro[4.5]decane-7,9-dione]
- Ki [1, 3]: 160 nM

SMILES: O=C1CCCC(=O)N1CCN1CCN(c2cc(Cl)ccc2Cl)CC1 [Example 2, 1-{2-[4-(2,5-Dichlorophenyl)-1-piperazinyl]-ethyl}-piperidinyl-2,6-dione]
- Ki [1, 3]: 258 nM

SMILES: O=C1CC2(CCCC2)C(=O)N1CCN1CCN(c2cc(Cl)ccc2Cl)CC1 [Example 14, 2-{2-[4-(2,5-Dichlorophenyl)-1-piperazinyl]-ethyl}-2-azaspiro[4.4]nonane-1,3-dione]
- Ki [1]: > 1000 nM

SMILES: N#Cc1ccc(Cl)cc1N1CCN(CCN2C(=O)CC3(CCCC3)CC2=O)CC1 [Example 8, 8-{2-[4-(5-Chloro-2-cyanophenyl)-1-piperazinyl]-ethyl}-8-azaspiro[4.5]decane-7,9-dione]
- Ki [1, 3]: 29.6 nM

SMILES: O=C1CC2(CCCC2)CC(=O)N1CCN1CCN(c2cc(I)ccc2Cl)CC1 [Example 10, 8-{2-[4-(2-Chloro-5-iodophenyl)-1-piperazinyl]-ethyl}-8-azaspiro[4.5]decane-7,9-dione]
- Ki [1, 3]: 804 nM

SMILES: Cc1ccc(F)c(N2CCN(CCN3C(=O)CC4(CCCC4)CC3=O)CC2)c1 [Example 4, 8-{2-[4-(2-Fluoro-5-methylphenyl)-1-piperazinyl]-ethyl}-8-azaspiro[4.5]decane-7,9-dione]
- Ki [1, 3]: 52.3 nM
